The source made the active and inactive calls.
Tests used:
Mus musculus [1] = experiment: Antinociceptive activity in Swiss mouse assessed as inhibition of capsaicin induced nociception by measuring paw licking time at 100 mg/kg administered via oral gavage for 1 hr followed by capsaicin challenge measured for 5 mins post dose relative to control; format: functional
[2] = Solubility of the compound in DMSO; format: physicochemical
Mus musculus [3] = experiment: Toxicity in Swiss mouse assessed as effect on spontaneous locomotory activity by measuring number of areas crossed at 100 mg/kg administered via oral gavage for 1 hr measured up to 5 mins post dose by open field test (reference value: 27 +/- 6 ); format: organism-based; details: in vivo
Mus musculus [4] = experiment: Toxicity in Swiss mouse assessed as effect on forced locomotory activity at 100 mg/kg administered via oral gavage for 1 hr measured up to 4 mins post dose by rotarod test; format: organism-based; details: in vivo
Mus musculus [5] = experiment: Antinociceptive activity in CFA-induced arthritic pain Swiss mouse model assessed as inhibition of mechanical hyperalgesia by measuring paw withdrawal threshold at 100 mg/kg administered via oral gavage measured at 2 hrs post dose by Von Frey filament assay relative to control; format: functional
Mus musculus [6] = experiment: Antinociceptive activity in CFA-induced arthritic pain Swiss mouse model assessed as inhibition of mechanical hyperalgesia by measuring paw withdrawal threshold at 100 mg/kg administered via oral gavage measured up to 2 hrs post dose by Von Frey filament assay; format: functional, organism-based
Mus musculus [7] = experiment: Antinociceptive activity in CFA-induced arthritic pain Swiss mouse model assessed as inhibition of mechanical hyperalgesia by measuring paw withdrawal threshold administered via oral gavage measured at 2 hrs post dose by Von Frey filament assay; format: functional; details: for ED50: read-out: ID50 (the source's name); for minimal effective dose: read-out: MED
Mus musculus [8] = experiment: Antinociceptive activity in CFA-induced arthritic pain Swiss mouse model assessed as inhibition of mechanical hyperalgesia by measuring paw withdrawal threshold at 100 mg/kg administered via oral gavage measured up to 4 hrs post dose by Von Frey filament assay; format: functional, organism-based
Mus musculus [9] = experiment: Antinociceptive activity in CFA-induced arthritic pain Swiss mouse model assessed as inhibition of mechanical hyperalgesia by measuring paw withdrawal threshold at 300 mg/kg administered via oral gavage measured at 2 hrs post dose by Von Frey filament assay relative to control; format: functional

Compound | inhibition in vivo at 100 mg/kg (Mus musculus [1]) [%] | solubility [2] | Activity (Mus musculus [3]) | Activity (Mus musculus [4]) | Imax (Mus musculus [5]) | inhibition (Mus musculus [6]) | ED50 (Mus musculus [7]) [mg/kg] | minimal effective dose (Mus musculus [7]) [mg/kg] | inhibition (Mus musculus [8]) | Imax (Mus musculus [9]) [%]
FC(F)(F)c1nc(-n2cccc2)nc2c1CCc1ccccc1-2 | 67 | Soluble | 23 | Non-Toxic | – | – | – | – | – | –
Cc1nc2c(c(C(F)(F)F)n1)CCc1ccccc1-2 | – | Insoluble | – | – | – | – | – | – | – | –
FC(F)(F)c1nc(-c2ccccc2)nc2c1CCc1ccccc1-2 | 65 | Soluble | 25 | Non-Toxic | 64 - 71% | Active | 241 | 100 | – | –
Nc1nc2c(c(C(F)(F)F)n1)CCc1ccccc1-2 | – | – | 22 | Non-Toxic | – | – | – | – | – | –
CSc1nc2c(c(C(F)(F)F)n1)CCc1ccccc1-2 | – | – | 23 | Non-Toxic | – | – | – | – | – | –
FC(F)(F)c1ncnc2c1CCc1ccccc1-2 | – | Insoluble | – | – | – | – | – | – | – | –
CC(C(=O)O)c1cccc(C(=O)c2ccccc2)c1 (stereo unspecified) [KETOPROFEN] | 81 | – | 38 | Non-Toxic | 70% | – | 144 | 100 to 300 | Active | 75

Source: ChEMBL document CHEMBL3856237, “Synthesis and antinociceptive activity of new 2-substituted 4-(trifluoromethyl)-5,6-dihydrobenzo[h]quinazolines” (Bioorg Med Chem Lett, 2016)
